Test results as given in PubChem BioAssay AID330 (DTP/NCI, 2004).
Several values for one entry are separate records, joined by “and”; a condition that tells them apart may be missing. Identical values can stand only once. Toxic doses and inconclusive results are not listed. How the source made its calls: active means survival T/C of 150% or more; inactive means T/C below 125% in these data.

System: P388 leukemia ip, CD2F1 mice, survival T/C
Experiment: NCI In Vivo Anticancer Drug Screen. Data for tumor model P388 Leukemia (intraperitoneal) in CD2F1 (CDF1) mice
Details: endpoint: median survival time, higher = longer survival
Summary of the method: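 Mice carrying the transplanted tumor received test compound or vehicle. Survival was recorded in each group, and the value is the treated-group measurement divided by that of the vehicle-treated control group.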

[1] = dose: 50.0 mg/kg/injection, schedule: Q01DX005 (ip), vehicle: saline with Tween-80
[2] = dose: 60.0 mg/kg/injection, schedule: Q01DX005 (ip), vehicle: saline with Tween-80
[3] = dose: 100.0 mg/kg/injection, schedule: Q01DX005 (ip), vehicle: saline with Tween-80
[4] = dose: 120.0 mg/kg/injection, schedule: Q01DX005 (ip), vehicle: saline with Tween-80
[5] = dose: 200.0 mg/kg/injection, schedule: Q01DX005 (ip), vehicle: saline with Tween-80
[6] = dose: 240.0 mg/kg/injection, schedule: Q01DX005 (ip), vehicle: saline with Tween-80
[7] = dose: 100.0 mg/kg/injection, schedule: Q04DX003 (ip), vehicle: saline
[8] = dose: 200.0 mg/kg/injection, schedule: Q04DX003 (ip), vehicle: saline
[9] = dose: 400.0 mg/kg/injection, schedule: Q04DX003 (ip), vehicle: saline
[10] = dose: 50.0 mg/kg/injection, schedule: Q01DX009 (ip), vehicle: saline
[11] = dose: 100.0 mg/kg/injection, schedule: Q01DX009 (ip), vehicle: saline
[12] = dose: 200.0 mg/kg/injection, schedule: Q01DX009 (ip), vehicle: saline
[13] = dose: 50.0 mg/kg/injection, schedule: Q01DX009 (ip), vehicle: saline with Tween-80
[14] = dose: 100.0 mg/kg/injection, schedule: Q01DX009 (ip), vehicle: saline with Tween-80

Measured: T/C

CCOC(=O)CC(C)P(c1ccccc1)C(C)CC(=O)OCC (stereo unspecified)
inactive: [1] 105 % of control | [2] 98 % of control | [3] 99 % of control | [4] 101 % of control | [5] 102 % of control | [6] 105 % of control

COC1=C(OC)C(=O)C(SCCCc2ccccc2)=CC1=O
inactive: dose: 12.5 mg/kg/injection, schedule: Q04DX002 (ip), vehicle: saline with Tween-80 114 % of control | dose: 25.0 mg/kg/injection, schedule: Q04DX002 (ip), vehicle: saline with Tween-80 112 % of control | dose: 50.0 mg/kg/injection, schedule: Q04DX002 (ip), vehicle: saline with Tween-80 122 % of control

COP(=S)(OC)Oc1cc(Cl)c(Cl)cc1Cl
inactive: dose: 50.0 mg/kg/injection, schedule: Q04DX003 (ip), vehicle: saline 100 % of control | [7] 102 % of control | [8] 103 % of control | [9] 102 % of control

CS(=O)(=O)OCCCCC/C=C/CCCCCCC1C=CCC1 (stereo unspecified)
inactive: dose: 100.0 mg/kg/injection, schedule: Q01DX001 (ip), vehicle: saline 98 % of control | dose: 200.0 mg/kg/injection, schedule: Q01DX001 (ip), vehicle: saline 99 % of control | dose: 400.0 mg/kg/injection, schedule: Q01DX001 (ip), vehicle: saline 100 % of control

Cc1cccnc1NC(=S)Nc1ccccc1Cl
inactive: dose: 12.5 mg/kg/injection, schedule: Q01DX009 (ip), vehicle: gum acacia 104 % of control | dose: 25.0 mg/kg/injection, schedule: Q01DX009 (ip), vehicle: gum acacia 96 % of control | dose: 50.0 mg/kg/injection, schedule: Q01DX009 (ip), vehicle: gum acacia 104 % of control | dose: 100.0 mg/kg/injection, schedule: Q01DX009 (ip), vehicle: gum acacia 95 % of control

CCN(CC)CCOC(=O)C(c1ccccc1)C(C)(O)CC (stereo unspecified)
inactive: dose: 25.0 mg/kg/injection, schedule: Q01DX009 (ip), vehicle: saline 105 % of control | [10] 100 % of control | [11] 115 % of control

NNC(=O)NN1C(=O)c2cc(S(=O)(=O)O)cc3c(N)c(S(=O)(=O)O)cc(c23)C1=O
inactive: dose: 50.0 mg/kg/injection, schedule: Q01DX005 (ip), vehicle: saline 98 % of control | dose: 100.0 mg/kg/injection, schedule: Q01DX005 (ip), vehicle: saline 104 % of control | dose: 200.0 mg/kg/injection, schedule: Q01DX005 (ip), vehicle: saline 99 % of control

O=C1NC2(c3ccccc3)NC(=O)NC2(c2ccccc2)N1 (stereo unspecified)
inactive: [10] 99 % of control | [11] 93 % of control | dose: 100.0 mg/kg/injection, schedule: Q04DX003 (ip), vehicle: saline with Tween-80 100 % of control | [7] 94 % of control | [12] 96 % of control | dose: 200.0 mg/kg/injection, schedule: Q04DX003 (ip), vehicle: saline with Tween-80 100 % of control | [8] 94 % of control | dose: 400.0 mg/kg/injection, schedule: Q04DX003 (ip), vehicle: saline with Tween-80 86 % of control | [9] 92 % of control

CCOC(=O)c1ccc(NC(=O)Nc2nc3cc(C)c(C)cc3s2)cc1
inactive: [13] 99 % of control | [14] 95 % of control | dose: 200.0 mg/kg/injection, schedule: Q01DX009 (ip), vehicle: saline with Tween-80 93 % of control

NC1=NC(c2ccccc2Cl)CC(c2cc3ccccc3o2)=N1 (stereo unspecified)
inactive: dose: 100.0 mg/kg/injection, schedule: Q01DX001 (ip), vehicle: saline with Tween-80 92 % of control | dose: 200.0 mg/kg/injection, schedule: Q01DX001 (ip), vehicle: saline with Tween-80 89 % of control | dose: 400.0 mg/kg/injection, schedule: Q01DX001 (ip), vehicle: saline with Tween-80 100 % of control

Ic1ccc(Nc2ncnc3sc4c(c23)CCCC4)cc1
inactive: [1] 111 % of control | [3] 94 % of control | [5] 92 % of control

COc1cc2c3c(n(C)c(=O)c2cc1OC)-c1cc2c(cc1C3=O)OCO2
inactive: dose: 2.0 mg/kg/injection, schedule: Q01DX009 (ip), vehicle: distilled water + Tween-80 98 % of control | dose: 4.0 mg/kg/injection, schedule: Q01DX009 (ip), vehicle: distilled water + Tween-80 100 % of control | dose: 8.0 mg/kg/injection, schedule: Q01DX009 (ip), vehicle: distilled water + Tween-80 107 % of control | dose: 16.0 mg/kg/injection, schedule: Q01DX009 (ip), vehicle: distilled water + Tween-80 98 % of control | dose: 32.0 mg/kg/injection, schedule: Q01DX009 (ip), vehicle: distilled water + Tween-80 100 % of control | dose: 64.0 mg/kg/injection, schedule: Q01DX009 (ip), vehicle: distilled water + Tween-80 99 % of control and 109 % of control | dose: 128.0 mg/kg/injection, schedule: Q01DX009 (ip), vehicle: distilled water + Tween-80 111 % of control and 123 % of control | dose: 256.0 mg/kg/injection, schedule: Q01DX009 (ip), vehicle: distilled water + Tween-80 100 % of control and 92 % of control

NC(=S)N/N=C1/C(=O)N(c2ccc(Cl)cc2)C(=O)C1C(=O)Nc1ccc(Cl)cc1 (stereo unspecified)
inactive: dose: 15.0 mg/kg/injection, schedule: Q01DX005 (ip), vehicle: saline with Tween-80 97 % of control | dose: 30.0 mg/kg/injection, schedule: Q01DX005 (ip), vehicle: saline with Tween-80 94 % of control | [2] 93 % of control and 94 % of control

O=C1NC(=O)C(C23CCN(CC2)CC3)N1 (stereo unspecified)
inactive: [7] 101 % of control | [8] 100 % of control | [9] 107 % of control

COc1cc([N+](=O)[O-])ccc1NC(=O)C(F)(F)F
inactive: [2] 100 % of control | [4] 104 % of control | [6] 101 % of control

CCOC(=O)C1=C(C)NC(=O)NC1c1coc2cc(C)cc(C)c2c1=O (stereo unspecified)
inactive: dose: 12.5 mg/kg/injection, schedule: Q01DX005 (ip), vehicle: Klucel (hydroxypropylcellulose) (HPC) 86 % of control | dose: 25.0 mg/kg/injection, schedule: Q01DX005 (ip), vehicle: Klucel (hydroxypropylcellulose) (HPC) 91 % of control | dose: 50.0 mg/kg/injection, schedule: Q01DX005 (ip), vehicle: Klucel (hydroxypropylcellulose) (HPC) 98 % of control and 96 % of control

COc1ccc(/C=N/NC(=S)NN)cc1
inactive: [2] 99 % of control | [4] 100 % of control | [6] 98 % of control

CCn1c2ccccc2c2ccc(N=Nc3ccc(N(C)C)cc3)cc21
inactive: [13] 111 % of control and 112 % of control and 113 % of control | [14] 108 % of control and 118 % of control

COC(=O)Nc1cn2ccc(C(Cl)=C(Cl)Cl)cc2n1
inactive: dose: 50.0 mg/kg/injection, schedule: Q01DX009 (ip), vehicle: Klucel (hydroxypropylcellulose) (HPC) 107 % of control and 109 % of control | dose: 100.0 mg/kg/injection, schedule: Q01DX009 (ip), vehicle: Klucel (hydroxypropylcellulose) (HPC) 117 % of control and 122 % of control | dose: 200.0 mg/kg/injection, schedule: Q01DX009 (ip), vehicle: Klucel (hydroxypropylcellulose) (HPC) 116 % of control

Cc1ncoc1C(=O)Nc1ccc([N+](=O)[O-])cc1[N+](=O)[O-]
inactive: dose: 100.0 mg/kg/injection, schedule: Q04DX002 (ip), vehicle: Klucel (hydroxypropylcellulose) (HPC) 103 % of control | dose: 200.0 mg/kg/injection, schedule: Q04DX002 (ip), vehicle: Klucel (hydroxypropylcellulose) (HPC) 100 % of control | dose: 400.0 mg/kg/injection, schedule: Q04DX002 (ip), vehicle: Klucel (hydroxypropylcellulose) (HPC) 105 % of control

O=C(O)c1cnc2ccccn12
inactive: dose: 50.0 mg/kg/injection, schedule: Q01DX009 (ip), vehicle: acetone 112 % of control | [10] 95 % of control | dose: 100.0 mg/kg/injection, schedule: Q01DX009 (ip), vehicle: acetone 117 % of control | [11] 96 % of control | dose: 200.0 mg/kg/injection, schedule: Q01DX009 (ip), vehicle: acetone 102 % of control | [12] 107 % of control
